In ChEMBL document CHEMBL1155790 (Bioorg Med Chem, 2008):

Assays:
[1] = target: T1, Acetylcholinesterase (Bos taurus, UniProt P23795)
T1 sequence (P23795 whole entry): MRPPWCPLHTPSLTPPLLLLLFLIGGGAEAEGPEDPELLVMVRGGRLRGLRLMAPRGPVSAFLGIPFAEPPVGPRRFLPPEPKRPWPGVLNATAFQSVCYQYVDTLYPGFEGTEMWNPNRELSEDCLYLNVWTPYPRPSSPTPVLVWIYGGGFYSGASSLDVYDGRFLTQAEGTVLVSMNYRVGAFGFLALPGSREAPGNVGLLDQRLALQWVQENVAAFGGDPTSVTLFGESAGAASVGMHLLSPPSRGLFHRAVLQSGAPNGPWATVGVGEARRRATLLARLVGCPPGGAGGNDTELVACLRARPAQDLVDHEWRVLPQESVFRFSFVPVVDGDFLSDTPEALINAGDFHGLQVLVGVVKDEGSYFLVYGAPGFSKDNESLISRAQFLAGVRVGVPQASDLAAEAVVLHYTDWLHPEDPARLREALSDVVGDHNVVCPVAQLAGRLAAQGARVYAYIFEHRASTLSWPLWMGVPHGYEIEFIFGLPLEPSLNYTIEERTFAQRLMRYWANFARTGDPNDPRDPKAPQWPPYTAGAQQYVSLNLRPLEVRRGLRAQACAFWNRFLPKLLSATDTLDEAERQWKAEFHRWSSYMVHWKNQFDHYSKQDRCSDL
Description: Inhibition of bovine AChE by Ellman's method

[2] = Selectivity index, IC50 for equine BChE to IC50 for bovine AChE by Ellman's method
[3] = target: Cholinesterase (Equus caballus, UniProt P81908)
Description: Inhibition of equine BChE by Ellman's method

[4] = target: Cholinesterase (Equus caballus) (UniProt P81908); assay: Inhibition of equine BChE at 10 uM by Ellman's method
[5] = target: Cholinesterase (Equus caballus) (UniProt P81908); assay: Inhibition of equine BChE at 50 uM by Ellman's method
[6] = target: T2, Acetylcholinesterase (Bos taurus) (UniProt P23795); assay: Inhibition of bovine AChE at 50 uM by Ellman's method
T2 sequence (whole entry): T1 sequence (P23795 whole entry)

[7] = target: T2, Acetylcholinesterase (Bos taurus); assay: Inhibition of bovine AChE at 10 uM by Ellman's method

Cholinesterase (Equus caballus), sequence (P81908 whole entry): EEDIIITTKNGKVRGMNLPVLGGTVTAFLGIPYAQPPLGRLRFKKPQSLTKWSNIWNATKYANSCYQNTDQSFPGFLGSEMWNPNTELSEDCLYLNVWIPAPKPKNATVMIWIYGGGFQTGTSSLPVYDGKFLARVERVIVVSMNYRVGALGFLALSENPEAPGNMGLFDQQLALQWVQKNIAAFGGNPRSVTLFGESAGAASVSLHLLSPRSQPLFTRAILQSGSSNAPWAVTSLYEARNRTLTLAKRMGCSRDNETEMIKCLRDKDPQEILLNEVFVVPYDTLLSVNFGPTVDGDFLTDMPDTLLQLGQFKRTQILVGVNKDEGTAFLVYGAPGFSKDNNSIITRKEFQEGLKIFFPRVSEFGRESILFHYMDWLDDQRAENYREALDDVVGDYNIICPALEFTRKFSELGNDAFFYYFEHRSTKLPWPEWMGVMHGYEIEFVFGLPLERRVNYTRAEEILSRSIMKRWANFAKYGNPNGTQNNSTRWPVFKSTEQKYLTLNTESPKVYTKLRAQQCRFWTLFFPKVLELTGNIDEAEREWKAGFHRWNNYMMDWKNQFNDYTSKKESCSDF
Cholinesterase, sequence (P81908 whole entry): as above

C[N+](C)(C)c1cccc(OCCCCOc2cccc([N+](C)(C)C)c2)c1
IC50 [1]: 0.158 µM | Selectivity Index [2]: 15 | IC50 [3]: 2.34 µM

CN(C)c1cc(O)cc(OCCCOc2cc(O)cc(N(C)Cc3ccccc3)c2)c1
IC50 [1]: 6.17 µM

C[N+](C)(C)c1cccc(O)c1
inhibition [4]: 13% | IC50 [1]: 12 µM

CN(C)c1cc(O)cc(OCCCCOc2cc(O)cc(N(C)C)c2)c1
inhibition [5]: 25% | IC50 [1]: 6.46 µM

CN(Cc1ccccc1)c1cc(O)cc(OCCCOc2cc(O)cc(N(C)Cc3ccccc3)c2)c1
inhibition [6]: 3%

CN(C)c1cc(O)cc(OCCCCOc2cc(O)cc(N(C)Cc3ccccc3)c2)c1
inhibition [7]: 40%

C=CC[N+](C)(C)c1ccc(CCC(=O)CCc2ccc([N+](C)(C)CC=C)cc2)cc1
IC50 [1]: 0.008 µM

CC[N+](CC)(CCNC(=O)C(=O)NCC[N+](CC)(CC)Cc1ccccc1Cl)Cc1ccccc1Cl [AMBENONIUM]
IC50 [1]: 0.00012 µM

C[N+](C)(C)c1cc(O)cc(OCCCCOc2cc(O)cc([N+](C)(C)C)c2)c1
IC50 [3]: 0.715 µM

Cc1c(C)c2ccc(OCCCOc3cc(O)cc(N(C)Cc4ccccc4)c3)cc2oc1=O
inhibition [7]: 8%

COc1ccc2c(C)c(C)c(=O)oc2c1
inhibition [4]: 25% | IC50 [1]: 42 µM

C[N+](C)(C)c1cc(O)cc(OCCCCOc2cc(O)cc([N+](C)(C)Cc3ccccc3)c2)c1
inhibition [4]: 42% | IC50 [1]: 6.56 µM

Cc1c(C)c2ccc(OCCCOc3cc(O)cc([N+](C)(C)C)c3)cc2oc1=O
IC50 [1]: 0.0021 µM | Selectivity Index [2]: 505 | IC50 [3]: 1.06 µM

Cc1c(C)c2ccc(OCCCCOc3cc(O)cc([N+](C)(C)C)c3)cc2oc1=O
IC50 [1]: 0.001 µM | Selectivity Index [2]: 708 | IC50 [3]: 0.708 µM

CN(Cc1ccccc1)c1cc(O)cc(OCCCCOc2cc(O)cc(N(C)Cc3ccccc3)c2)c1
inhibition [6]: 3% | inhibition [7]: 14%

CN(C)c1cc(O)cc(OCCCOc2cc(O)cc(N(C)C)c2)c1
IC50 [1]: 1.91 µM

Cc1c(C)c2ccc(OCCCCOc3cc(O)cc(N(C)Cc4ccccc4)c3)cc2oc1=O
inhibition [7]: 15%

C[N+](C)(C)c1cc(O)cc(OCCCOc2cc(O)cc([N+](C)(C)C)c2)c1
IC50 [1]: 0.00049 µM | Selectivity Index [2]: 1460 | IC50 [3]: 0.718 µM

Cc1c(C)c2ccc(OCCCOc3cc(O)cc(N(C)C)c3)cc2oc1=O
IC50 [1]: 0.871 µM

Cc1c(C)c2ccc(OCCCCOc3cc(O)cc(N(C)C)c3)cc2oc1=O
inhibition [5]: 25% | IC50 [1]: 0.275 µM
